The values below come from patent US9272054B2, “Agents for the molecular imaging of serine-protease in human pathologies” (Institut National de la Sante et de la Recherche Medicale …, priority 2010, dated 2016).

For data set [1], the target named is T1, plasmin from human plasma (Homo sapiens, UniProt P00747).
T1 construct: plasmin from human plasma (calbiochem); purchased calbiochem; host or cells: human plasma
As to the kind of experiment: Determination of plasmin activity with fluorescent substrate Suc-Ala-Phe-Lys-AMC. Format: biochemical. As to conditions: for % of plasmin activity (mean): 10 nM plasmin, 15 min pre-incubation at room temperature, n=4. The procedure:
Plasmin with or without inhibitors was incubated at room temperature for 15 min. The fluorescent substrate (40 μM) was added just before reading (λ excitation 390 nm, λ emission 460 nm)
10 nM of plasmin from human plasma (calbiochem) was diluted in Tris-HCl buffer pH 7.4 50 mM, NaCl 100 mM and Tween-20 0.01%. The samples were then incubated or not with the different inhibitors (see below) for 15 minutes at room temperature. Then, the fluorescent substrate (Suc-Ala-Phe-Lys-AMC, […]) was added just before reading (λ excitation 390 nm, λ emission 460 nm) on the Fluoroskan Ascent plate reader (Thermo Fisher). The fluorescence intensity was evaluated every 10 minutes for 2 hours at 37° C.—The integration time for each measure was 20 ms.
Each inhibitor was tested in a range of concentrations from 5 nM up to 1000 nM. All the inhibitors were tested in duplicates for each concentration and 4 independent experiments were performed.
Results are presented as % of active plasmin. The differences between the concentrations of each inhibitor were evaluated by paired t-test using StatView software. Statistical significance was accepted when p<0.05.

For data set [2], the system named is localized lesion / thrombus. To be noted: rat. The text has this: we have used several experimental models of endovascular thrombus formation in rats, which have been already developed for molecular molecular imaging of platelet activation and fibrin formation, including aneurysm of the abdominal aorta {Sarda-Mantel, 2006}, endocarditic vegetations {Rouzet, 2008}. Aneurysm of the aorta was induced by matrix decellularized xenograft in rats {Allaire, 1996}, and endocarditis by left or right ventricle catheterization followed by provoked bacteraemia {Rouzet, 2008} as previously described. These thrombus models were completed by a model of stroke, provoked by cerebral autologous thrombus emboli in rats (reference). […]
Relevant tissues (heart, abdominal aorta, or brain according to the model) were carefully dissected, frozen and cut into transverse sections of 20 μm thickness, which were exposed in a digital radioimager (Instant Imager, Packard, Meriden, USA) for 12 hours. The activity normalized to the region of interest area (mean counts/min/mm^2 corrected for background activity) was determined on autoradiograms. Quantification was performed by calculating the ratio between the activity of the relevant tissue and the activity of a region of interest drawn on either normal myocardium remote from the vegetation in the endocarditis model, supra-renal aorta sample in the AAA model, or the contralateral brain hemisphere in the stroke model. […]

In data set [3] the target is plasmin (Homo sapiens, UniProt P00747). To be noted: competitive inhibitor of plasmin; Chi, 1989; cited from earlier work.

Square brackets hold non-standard residues; d marks the D form. Peptide text beside a SMILES is read from it. * marks the point of attachment. DOTA = O=C(O)CN1CCN(CC(=O)O)CCN(CC(=O)*)CCN(CC(=O)O)CC1; DTPA = O=C(O)CN(CCN(CC(=O)O)CC(=O)O)CCN(CC(=O)O)CC(=O)*; CH2Cl = ClC*

T1 sequence (P00747 581-810 limits assumed): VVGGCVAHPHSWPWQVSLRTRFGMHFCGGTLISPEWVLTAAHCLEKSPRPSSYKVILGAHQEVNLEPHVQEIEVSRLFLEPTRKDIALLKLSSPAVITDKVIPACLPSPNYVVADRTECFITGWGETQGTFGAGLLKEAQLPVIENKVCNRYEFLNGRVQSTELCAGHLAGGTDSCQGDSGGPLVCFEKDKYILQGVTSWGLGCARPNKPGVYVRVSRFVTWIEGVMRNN
T1 sequence (P00747 97-580 partner limits assumed): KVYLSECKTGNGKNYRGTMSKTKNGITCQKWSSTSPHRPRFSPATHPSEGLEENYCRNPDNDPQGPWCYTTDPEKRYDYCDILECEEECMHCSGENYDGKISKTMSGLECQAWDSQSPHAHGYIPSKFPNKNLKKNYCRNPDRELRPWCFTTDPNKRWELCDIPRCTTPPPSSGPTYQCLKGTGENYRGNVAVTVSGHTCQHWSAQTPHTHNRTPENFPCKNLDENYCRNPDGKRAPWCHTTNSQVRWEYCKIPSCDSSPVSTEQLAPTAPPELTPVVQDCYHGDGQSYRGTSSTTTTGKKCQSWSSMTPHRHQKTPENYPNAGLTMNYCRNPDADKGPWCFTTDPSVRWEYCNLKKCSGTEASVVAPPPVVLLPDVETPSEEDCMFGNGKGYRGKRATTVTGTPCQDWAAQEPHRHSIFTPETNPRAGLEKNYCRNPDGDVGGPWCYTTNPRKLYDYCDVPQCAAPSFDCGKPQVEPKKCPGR
plasmin, sequence (P00747 581-810 limits assumed, species assumed): as the sequence (P00747 581-810 limits assumed) above
plasmin, sequence (P00747 97-580 partner limits assumed, species assumed): as the sequence (P00747 97-580 partner limits assumed) above

Regarding `CC(C)[C@@H](NC(=O)CNC(=O)CN1CCN(CC(=O)O)CCN(CC(=O)O)CCN(CC(=O)O)CC1)C(=O)N[C@@H](Cc1ccccc1)C(=O)N[C@@H](C)C(=O)CCl` [PL 703, DOTA-G-dV-F-A-cmk] ({DOTA}-G[dV]FA-CH2Cl), the “% of plasmin activity (mean)” value is given as 94.9% in data set [1] (inhibitor 5 nM); 93.6% in data set [1] (inhibitor 10 nM); 86.1% in data set [1] (inhibitor 50 nM); 84.1% in data set [1] (inhibitor 100 nM); 58.4% in data set [1] (inhibitor 500 nM); 48.4% in data set [1] (inhibitor 1000 nM).

As for `CC(C)[C@@H](NC(=O)CNC(=O)CN(CCN(CCN(CC(=O)O)CC(=O)O)CC(=O)O)CC(=O)O)C(=O)N[C@@H](Cc1ccccc1)C(=O)N[C@@H](CCCCN)C(=O)CCl` [99mTc-DTPA-G-dVFKcmk, metal not drawn] ({DTPA}-G[dV]FK-CH2Cl), the “in vivo uptake by bone marrow” value in data set [2] is given as “high”.

As for `CC(C)[C@@H](NC(=O)CNC(=O)CN1CCN(CC(=O)O)CCN(CC(=O)O)CCN(CC(=O)O)CC1)C(=O)N[C@@H](Cc1ccccc1)C(=O)N[C@@H](CCCCN)C(=O)CCl` [PL 701, DOTA-G-dV-F—K-cmk] ({DOTA}-G[dV]FK-CH2Cl), the “% of plasmin activity (mean)” value in data set [1] (inhibitor 5 nM) was found to be 83.0%; in data set [1] (inhibitor 10 nM), 79.1%; in data set [1] (inhibitor 50 nM) it was 68.7%; in data set [1] (inhibitor 100 nM), 54.6%; in data set [1] (inhibitor 500 nM), 34.1%; in data set [1] (inhibitor 1000 nM), 12.8%.

For the compound G-dV-F-A-cmk [PL 702], the “% of plasmin activity (mean)” value in data set [1] (inhibitor 5 nM) was determined as 102.3%; in data set [1] (inhibitor 10 nM), 123.5%; in data set [1] (inhibitor 50 nM), 122.9%; in data set [1] (inhibitor 100 nM), 113.3%; in data set [1] (inhibitor 500 nM), 112.1%; in data set [1] (inhibitor 1000 nM), 107.3%. The “inhibitory effect on plasmin activity (in words)” value in data set [1] (range 5 nM to 1000 nM) is given as “totally abolished”.

With G-dV-F—K-cmk [PL 700], the “% of plasmin activity (mean)” value in data set [1] (inhibitor 5 nM) was found to be 89.8%; in data set [1] (inhibitor 10 nM) it was 95.6%; in data set [1] (inhibitor 50 nM), 65.7%; in data set [1] (inhibitor 100 nM) it was 43.1%; in data set [1] (inhibitor 500 nM), 15.8%; in data set [1] (inhibitor 1000 nM), 5.8%.

As to `CC(C)[C@@H](NC(=O)CNC(=O)CN(CCN(CCN(CC(=O)O)CC(=O)O)CC(=O)O)CC(=O)O)C(=O)N[C@@H](Cc1ccccc1)C(=O)N[C@@H](CCCCN)C(=O)CCl` [PL 704, DTPA-G-dV-F—K-cmk] ({DTPA}-G[dV]FK-CH2Cl), the “% of plasmin activity (mean)” value is 56.3% in data set [1] (inhibitor 5 nM); 46.2% in data set [1] (inhibitor 10 nM); 27.4% in data set [1] (inhibitor 50 nM); 16.6% in data set [1] (inhibitor 100 nM); 4.0% in data set [1] (inhibitor 500 nM); 1.1% in data set [1] (inhibitor 1000 nM).

As to “D-Val-Phe-Lys-COCH2Cl [VFK, reference compound]”, the “% of plasmin activity (mean)” value in data set [1] (inhibitor 5 nM) stood at 77.1%; in data set [1] (inhibitor 10 nM) it was 68.3%; in data set [1] (inhibitor 50 nM), 39.1%; in data set [1] (inhibitor 100 nM), 11.9%; in data set [1] (inhibitor 500 nM) it was 8.0%; in data set [1] (inhibitor 1000 nM), 7.8%.

As usually defined, the Ki is a dissociation constant, usually derived from enzyme kinetics or from competition with a known ligand. `CC(=O)N[C@@H](CC(C)C)C(=O)N[C@@H](CC(C)C)C(=O)N[C@H](C=O)CCCNC(=N)N` [leupeptin, Ac-Leu-Leu-Arg-H]: the Ki in data set [3] is approximately 100 nM.
